Measured values reported in patent US10934310B2, “Inhibitors of Bruton's tyrosine kinase and method of their use” (JANSSEN PHARMACEUTICA NV, priority 2015, dated 2021).

The molecules below were run against unphosphorylated-BTK kinase domain (UP-BTK), GST-tagged human BTK (389-659aa) (Homo sapiens (Human), UniProt Q06187) (assay: BTK Kinase Lanthascreen Binding Assay). Conditions: compound, 50 nM Tracer 236, 2 nM anti-GST antibody, 60 minutes; pIC50 = negative log of the IC50 in molar.
Method: BTK Kinase Lanthascreen Binding Assay:
A BTK kinase lanthascreen binding assay monitors compound binding to unphosphorylated-BTK kinase domain (UP-BTK), by competing with a fluorescent labeled tracer. […] Data were analyzed using Xlfit™ version 5.3 from ID Business Solutions (Guildford), Microsoft Excel add-in. pIC50 refers to the negative log of the IC50 in molar.

Chain of unphosphorylated-BTK kinase domain (UP-BTK), GST-tagged human BTK (389-659aa) (Q06187 389-659): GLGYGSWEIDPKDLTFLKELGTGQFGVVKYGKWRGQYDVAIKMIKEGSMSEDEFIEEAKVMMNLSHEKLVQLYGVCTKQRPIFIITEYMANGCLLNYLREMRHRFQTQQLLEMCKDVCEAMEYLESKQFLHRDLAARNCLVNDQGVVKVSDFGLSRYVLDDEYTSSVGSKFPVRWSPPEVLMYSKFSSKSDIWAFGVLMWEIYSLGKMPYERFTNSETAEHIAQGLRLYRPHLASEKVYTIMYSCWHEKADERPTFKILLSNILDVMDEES

Row | SMILES | BTK_I_binding pIC50
1 | Cc1cc(Oc2ccccc2)ccc1N1C(=O)Nc2c(C(=O)N[C@@H]3CCC[C@H]3N)sc3nccc1c23 (single isomer, unassigned) [Example 120, N-((1R,2R)-2-Aminocyclopentyl)-5-(*S)-(2-methyl-4-phenoxyphenyl)-4-oxo-4,5-dihydro-3H-1-thia-3,5,8-triazaacenaphthylene-2-carboxamide] | 7.54
2 | CNCC(=O)N[C@H]1CCC[C@H]1NC(=O)c1sc2nccc3c2c1NC(=O)N3c1ccc(Oc2ccccc2)cc1C (single isomer, unassigned) [Example 122, 5-(*S)-(2-Methyl-4-phenoxyphenyl)-N-((1R,2S)-2-(2-(methylamino)acetamido)cyclopentyl)-4-oxo-4,5-dihydro-3H-1-thia-3,5,8-triazaacenaphthylene-2-carboxamide] | 7.18
3 | Cc1cc(Oc2ccccc2)ccc1N1C(=O)Nc2c(C(=O)N[C@H]3CCC[C@@H]3NC(=O)CN(C)C)sc3nccc1c23 (single isomer, unassigned) [Example 123, N-((1S,2S)-2-(2-(Dimethylamino)acetamido)cyclopentyl)-5-(*S)-(2-methyl-4-phenoxyphenyl)-4-oxo-4,5-dihydro-3H-1-thia-3,5,8-triazaacenaphthylene-2-carboxamide] | 7.07
4 | CNCC(=O)N[C@H]1CCCC[C@H]1NC(=O)c1sc2nccc3c2c1NC(=O)N3c1ccc(Oc2ccccc2)cc1C (single isomer, unassigned) [Example 125, 5-(*S)-(2-Methyl-4-phenoxyphenyl)-N-((1R,2S)-2-(2-(methylamino)acetamido)cyclohexyl)-4-oxo-4,5-dihydro-3H-1-thia-3,5,8-triazaacenaphthylene-2-carboxamide] | 7.11
5 | Cc1cc(Oc2ccccc2)ccc1N1C(=O)Nc2c(C(=O)N[C@@H]3CCC[C@@H]3NC(=O)CN(C)C)sc3nccc1c23 (single isomer, unassigned) [Example 128, N-((1R,2S)-2-(2-(Dimethylamino)acetamido)cyclopentyl)-5-(*S)-(2-methyl-4-phenoxyphenyl)-4-oxo-4,5-dihydro-3H-1-thia-3,5,8-triazaacenaphthylene-2-carboxamide] | 7.10
6 | Cc1cc(Oc2ccccc2)ccc1N1C(=O)Nc2c(C(=O)N[C@@H]3CCCC[C@@H]3NC(=O)CN)sc3nccc1c23 (single isomer, unassigned) [Example 129, N-((1R,2S)-2-(2-Aminoacetamido)cyclohexyl)-5-(*S)-(2-methyl-4-phenoxyphenyl)-4-oxo-4,5-dihydro-3H-1-thia-3,5,8-triazaacenaphthylene-2-carboxamide] | 7.39
7 | Cc1cc(Oc2ccccc2)ccc1N1C(=O)Nc2c(C(=O)N[C@H]3CCC[C@@H]3NC(=O)CN)sc3nccc1c23 (single isomer, unassigned) [Example 130, N-((1S,2S)-2-(2-Aminoacetamido)cyclopentyl)-5-(*S)-(2-methyl-4-phenoxyphenyl)-4-oxo-4,5-dihydro-3H-1-thia-3,5,8-triazaacenaphthylene-2-carboxamide] | 7.17
8 | Cc1cc(Oc2ccccc2)ccc1N1C(=O)Nc2c(C(=O)N[C@@H]3CCC[C@@H]3NC(=O)CN)sc3nccc1c23 (single isomer, unassigned) [Example 131, N-((1R,2S)-2-(2-Aminoacetamido)cyclopentyl)-5-(*S)-(2-methyl-4-phenoxyphenyl)-4-oxo-4,5-dihydro-3H-1-thia-3,5,8-triazaacenaphthylene-2-carboxamide] | 7.40
9 | Cc1cc(Oc2ccccc2)ccc1N1C(=O)Nc2c(C(=O)N[C@@H]3CCCC[C@@H]3NC(=O)CN(C)C)sc3nccc1c23 (single isomer, unassigned) [Example 132, N-((1R,2S)-2-(2-(Dimethylamino)acetamido)cyclohexyl)-5-(*S)-(2-methyl-4-phenoxyphenyl)-4-oxo-4,5-dihydro-3H-1-thia-3,5,8-triazaacenaphthylene-2-carboxamide] | 7.27
10 | CNCC(=O)N[C@H]1CCC[C@@H]1NC(=O)c1sc2nccc3c2c1NC(=O)N3c1ccc(Oc2ccccc2)cc1C (single isomer, unassigned) [Example 133, 5-(*S)-(2-Methyl-4-phenoxyphenyl)-N-((1S,2S)-2-(2-(methylamino)acetamido)cyclopentyl)-4-oxo-4,5-dihydro-3H-1-thia-3,5,8-triazaacenaphthylene-2-carboxamide] | 7.13
11 | CC(=O)N[C@H]1CCC[C@@H]1NC(=O)c1sc2nccc3c2c1NC(=O)N3c1ccc(Oc2ccccc2)cc1C (single isomer, unassigned) [Example 134, N-((1S,2S)-2-Acetamidocyclopentyl)-5-(*S)-(2-methyl-4-phenoxyphenyl)-4-oxo-4,5-dihydro-3H-1-thia-3,5,8-triazaacenaphthylene-2-carboxamide] | 6.76
12 | Cc1cc(Oc2ccccc2)ccc1N1C(=O)Nc2c(C(=O)N[C@H]3CCC[C@@H]3N)sc3nccc1c23 (single isomer, unassigned) [Example 135, N-((1S,2S)-2-Aminocyclopentyl)-5-(*S)-(2-methyl-4-phenoxyphenyl)-4-oxo-4,5-dihydro-3H-1-thia-3,5,8-triazaacenaphthylene-2-carboxamide] | 6.82
13 | CC(=O)N[C@H]1CCCC[C@H]1NC(=O)c1sc2nccc3c2c1NC(=O)N3c1ccc(Oc2ccccc2)cc1C (single isomer, unassigned) [Example 136, N-((1R,2S)-2-Acetamidocyclohexyl)-5-(*S)-(2-methyl-4-phenoxyphenyl)-4-oxo-4,5-dihydro-3H-1-thia-3,5,8-triazaacenaphthylene-2-carboxamide] | 7.52
14 | CC(=O)N[C@H]1CCC[C@H]1NC(=O)c1sc2nccc3c2c1NC(=O)N3c1ccc(Oc2ccccc2)cc1C (single isomer, unassigned) [Example 138, N-((1R,2S)-2-Acetamidocyclopentyl)-5-(*S)-(2-methyl-4-phenoxyphenyl)-4-oxo-4,5-dihydro-3H-1-thia-3,5,8-triazaacenaphthylene-2-carboxamide] | 7.49
15 | Cc1cc(Oc2ccccc2)ccc1N1C(=O)Nc2c(C(=O)N[C@H]3CCC[C@H]3NC(=O)CN)sc3nccc1c23 (single isomer, unassigned) [Example 154, N-((1S,2R)-2-(2-Aminoacetamido)cyclopentyl)-5-(*S)-(2-methyl-4-phenoxyphenyl)-4-oxo-4,5-dihydro-3H-1-thia-3,5,8-triazaacenaphthylene-2-carboxamide] | 6.36
16 | Cc1cc(Oc2ccccc2)ccc1N1C(=O)Nc2c(C(=O)N[C@H]3CCC[C@H]3NC(=O)CN(C)C)sc3nccc1c23 (single isomer, unassigned) [Example 155, N-((1S,2R)-2-(2-(Dimethylamino)acetamido)cyclopentyl)-5-(*S)-(2-methyl-4-phenoxyphenyl)-4-oxo-4,5-dihydro-3H-1-thia-3,5,8-triazaacenaphthylene-2-carboxamide] | 6.35
17 | CNCC(=O)N[C@@H]1CCC[C@@H]1NC(=O)c1sc2nccc3c2c1NC(=O)N3c1ccc(Oc2ccccc2)cc1C (single isomer, unassigned) [Example 156, 5-(*S)-(2-Methyl-4-phenoxyphenyl)-N-((1S,2R)-2-(2-(methylamino)acetamido)cyclopentyl)-4-oxo-4,5-dihydro-3H-1-thia-3,5,8-triazaacenaphthylene-2-carboxamide] | 6.26
18 | C=CC(=O)N[C@H]1CCC[C@H]1NC(=O)c1sc2nccc3c2c1NC(=O)N3c1ccc(OC(C)C)cc1C (single isomer, unassigned) [Example 165, N-((1R,2S)-2-Acrylamidocyclopentyl)-5-(*R)-(4-isopropoxy-2-methylphenyl)-4-oxo-4,5-dihydro-3H-1-thia-3,5,8-triazaacenaphthylene-2-carboxamide] | 8.30
19 | C=CC(=O)N[C@H]1CCC[C@H]1NC(=O)c1sc2nccc3c2c1NC(=O)N3c1cnc(Oc2ccccc2)nc1C (single isomer, unassigned) [Example 166, N-((1R,2S)-2-Acrylamidocyclopentyl)-5-(*S)-(4-methyl-2-phenoxypyrimidin-5-yl)-4-oxo-4,5-dihydro-3H-1-thia-3,5,8-triazaacenaphthylene-2-carboxamide] | 8.13
20 | Cc1cc(Oc2ccccc2)ncc1N1C(=O)Nc2c(C(=O)N[C@@H]3CCC[C@@H]3N)sc3nccc1c23 (single isomer, unassigned) [Example 170, N-((1R,2S)-2-Aminocyclopentyl)-5-(*S)-(4-methyl-6-phenoxypyridin-3-yl)-4-oxo-4,5-dihydro-3H-1-thia-3,5,8-triazaacenaphthylene-2-carboxamide] | 7.02
21 | C=CC(=O)N[C@H]1CCC[C@H]1NC(=O)c1sc2nccc3c2c1NC(=O)N3c1cnc(Oc2ccccc2)cc1C (single isomer, unassigned) [Example 171, N-((1R,2S)-2-Acrylamidocyclopentyl)-5-(*S)-(4-methyl-6-phenoxypyridin-3-yl)-4-oxo-4,5-dihydro-3H-1-thia-3,5,8-triazaacenaphthylene-2-carboxamide] | 8.19
22 | C=CC(=O)N[C@H]1CCCC[C@H]1NC(=O)c1sc2nccc3c2c1NC(=O)N3c1cnc(Oc2ccccc2)cc1C (single isomer, unassigned) [Example 173, N-((1R,2S)-2-Acrylamidocyclohexyl)-5-(*S)-(4-methyl-6-phenoxypyridin-3-yl)-4-oxo-4,5-dihydro-3H-1-thia-3,5,8-triazaacenaphthylene-2-carboxamide] | 8.02

Same assay, conditions: read-out: BTK_I_binding pIC50 (converted)

Row | SMILES | IC50 [nM]
23 | CC(=O)N[C@@H]1CCC[C@@H]1NC(=O)c1sc2nccc3c2c1NC(=O)N3c1ccc(Oc2ccccc2)cc1C (single isomer, unassigned) [Example 162, N-((1S,2R)-2-Acetamidocyclopentyl)-5-(*S)-(2-methyl-4-phenoxyphenyl)-4-oxo-4,5-dihydro-3H-1-thia-3,5,8-triazaacenaphthylene-2-carboxamide] | > 1000
